Assays:
Format in all cases: in vivo
[1] = tested on: mare's tail (ERICA; Conyza canadensis); test: Test H postemergence, mixtures of Cpd. No. 20 with atrazine or glyphosate
Source text: (§1) This test evaluated the effect of mixtures of Cpd. No. 20 with atrazine or glyphosate on several plant species. Seeds of plant species selected from corn (ZEAMD; Zea mays, cv. ‘Pioneer 1184’), soybean (GLXMA; Glycine max, cv. Pioneer 35T58), giant foxtail (SETFA; Setaria faberi), Surinamgrass (BRADC; Brachiaria decumbens), fall panicum (PANDI; Panicum dichotomiflorum), velvetleaf (ABUTH; Abutilon threophrasti), mare's tail (ERICA; Conyza canadensis), barnyardgrass (ECHCG; Echinochloa crus-galli), large crabgrass (DIGSA; Digitaria sanguinalis), palmer amaranth (AMAPA; Amaranthus palmeri), common waterhemp (AMATU; Amaranthus rudis), E. black nightshade (SOLPT; Solanum ptycanthum), and common ragweed (AMBEL; Ambrosia artemisiifolia) were planted in pots containing Redi-Earth® planting medium (Scotts Company, 14111 Scottslawn Road, Marysville, Ohio 43041) comprising spaghnum peat moss, vermiculite, wetting agent and starter nutrients and treated postemergence using test chemicals formulated in a non-phytotoxic solvent mixture which included a surfactant. Plants ranged in height from 2 to 10 cm and were in the one- to two-leaf stage for the postemergence treatment. Treated plants and untreated controls were maintained in a greenhouse for approximately 14 d, after which time all treated plants were compared to untreated controls and visually evaluated for injury. Plant response ratings, summarized in Tables H1 & H2, are based on a 0 to 100 scale where 0 is no effect and 100 is complete control. A dash (-) response means no test result. Test results are presented as a mean of 4 reps.

[2] = tested on: palmer amaranth (AMAPA; Amaranthus palmeri); test: as above
Source text: as §1

[3] = tested on: common waterhemp (AMATU; Amaranthus rudis); test: as above
Source text: as §1

[4] = tested on: E. black nightshade (SOLPT; Solanum ptycanthum); test: as above
Source text: as §1

[5] = tested on: velvetleaf (ABUTH; Abutilon threophrasti); test: as above
Source text: as §1

[6] = tested on: barnyardgrass (ECHCG; Echinochloa crus-galli); test: as above
Source text: as §1

[7] = tested on: giant foxtail (SETFA; Setaria faberi); test: as above
Source text: as §1

[8] = tested on: common ragweed (AMBEL; Ambrosia artemisiifolia); test: as above
Source text: as §1

[9] = tested on: corn (ZEAMD; Zea mays, cv. ‘Pioneer 1184’); test: as above
Source text: as §1

[10] = tested on: soybean (GLXMA; Glycine max, cv. Pioneer 35T58); test: as above
Source text: as §1

[11] = tested on: large crabgrass (DIGSA; Digitaria sanguinalis); test: as above
Source text: as §1

[12] = tested on: fall panicum (PANDI; Panicum dichotomiflorum); test: as above
Source text: as §1

[13] = tested on: Surinamgrass (BRADC; Brachiaria decumbens); test: as above
Source text: as §1

[14] = tested on: winter barley (HORVW; Hordeum vulgare, cv. Boone); test: Test M postemergence, mixtures of Cpd. No. 20 with isoxadifen-ethyl, cloquintocet-mexyl or Mefenpyr-diethyl; settings: approx. 14 d, second component alone 31 g a.i./ha
Source text: (§2) This test evaluated the effect of mixtures of Cpd. No. 20 with isoxadifen-ethyl, or cloquintocet-mexyl, or Mefenpyr-diethyl on several plant species. Seeds of plant species selected from corn (ZEAMD; Zea mays, cv. ‘Pioneer 1184’), soybean (GLXMA; Glycine max, cv. Pioneer 35T58), winter wheat (TRZAW; Triticum aetivum, cv. Arezzo), winter barley (HORVW; Hordeum vulgare, cv. Boone), rice (ORYSS; Oryza sativa, cv. M202), and giant foxtail (SETFA; Setaria faberi) were planted in pots containing Redi-Earth® planting medium (Scotts Company, 14111 Scottslawn Road, Marysville, Ohio 43041) comprising spaghnum peat moss, vermiculite, wetting agent and starter nutrients and treated postemergence using test chemicals formulated in a non-phytotoxic solvent mixture which included a surfactant. Plants ranged in height from 7 to 10 cm and were in the one- to two-leaf stage for the postemergence treatment. Treated plants and untreated controls were maintained in a greenhouse for approximately 14 d, after which time all treated plants were compared to untreated controls and visually evaluated for injury. Plant response ratings, summarized in Tables M1 to M3, are based on a 0 to 100 scale where 0 is no effect and 100 is complete control. A dash (-) response means no test result. Test results are presented as a mean of 3 reps.

[15] = tested on: rice (ORYSS; Oryza sativa, cv. M202); test: as above; settings: approx. 14 d, second component alone 31 g a.i./ha
Source text: as §2

[16] = tested on: giant foxtail (SETFA; Setaria faberi); test: as above; settings: approx. 14 d, second component alone 31 g a.i./ha
Source text: as §2

[17] = tested on: corn (ZEAMD; Zea mays, cv. ‘Pioneer 1184’); test: as above; settings: approx. 14 d, second component alone 31 g a.i./ha
Source text: as §2

[18] = tested on: winter wheat (TRZAW; Triticum aetivum, cv. Arezzo); test: as above; settings: approx. 14 d, second component alone 31 g a.i./ha
Source text: as §2

[19] = tested on: soybean (GLXMA; Glycine max, cv. Pioneer 35T58); test: as above; settings: approx. 14 d, second component alone 31 g a.i./ha
Source text: as §2

[20] = tested on: rice (ORYSS; Oryza sativa, cv. M202); test: Test of Tables L1 to L3, postemergence, mixtures of Cpd. No. 20 with benoxacor, isoxadifen-ethyl, or cloquintocet-mexyl
Source text: as §2, with “with benoxacor,” for “with”, “or cloquintocet-mexyl” for “or cloquintocet-mexyl, or Mefenpyr-diethyl”, “Arezzo),” for “Arezzo), winter barley (HORVW; Hordeum vulgare, cv. Boone),”, “Tables L1” for “Tables M1”, “to L3,” for “to M3,”, “of 4” for “of 3”

[21] = tested on: giant foxtail (SETFA; Setaria faberi); test: as above
Source text: as §2, with “with benoxacor,” for “with”, “or cloquintocet-mexyl” for “or cloquintocet-mexyl, or Mefenpyr-diethyl”, “Arezzo),” for “Arezzo), winter barley (HORVW; Hordeum vulgare, cv. Boone),”, “Tables L1” for “Tables M1”, “to L3,” for “to M3,”, “of 4” for “of 3”

[22] = tested on: corn (ZEAMD; Zea mays, cv. ‘Pioneer 1184’); test: as above
Source text: as §2, with “with benoxacor,” for “with”, “or cloquintocet-mexyl” for “or cloquintocet-mexyl, or Mefenpyr-diethyl”, “Arezzo),” for “Arezzo), winter barley (HORVW; Hordeum vulgare, cv. Boone),”, “Tables L1” for “Tables M1”, “to L3,” for “to M3,”, “of 4” for “of 3”

[23] = tested on: winter wheat (TRZAW; Triticum aetivum, cv. Arezzo); test: as above
Source text: as §2, with “with benoxacor,” for “with”, “or cloquintocet-mexyl” for “or cloquintocet-mexyl, or Mefenpyr-diethyl”, “Arezzo),” for “Arezzo), winter barley (HORVW; Hordeum vulgare, cv. Boone),”, “Tables L1” for “Tables M1”, “to L3,” for “to M3,”, “of 4” for “of 3”

[24] = tested on: soybean (GLXMA; Glycine max, cv. Pioneer 35T58); test: as above
Source text: as §2, with “with benoxacor,” for “with”, “or cloquintocet-mexyl” for “or cloquintocet-mexyl, or Mefenpyr-diethyl”, “Arezzo),” for “Arezzo), winter barley (HORVW; Hordeum vulgare, cv. Boone),”, “Tables L1” for “Tables M1”, “to L3,” for “to M3,”, “of 4” for “of 3”

[25] = approx. 14 d, Cloquintocet-mexyl alone 31 g a.i./ha

| SMILES | Observed result (plant response rating), ERICA ([1]; applied alone at 125 g a.i./ha) | Observed result (plant response rating), AMAPA ([2]; applied alone at 125 g a.i./ha) | Observed result (plant response rating), AMATU ([3]; applied alone at 125 g a.i./ha) | Observed result (plant response rating), SOLPT ([4]; applied alone at 125 g a.i./ha) | Observed result (plant response rating), ABUTH ([5]; applied alone at 125 g a.i./ha) | Observed result (plant response rating), ECHCG ([6]; applied alone at 125 g a.i./ha) | Observed result (plant response rating), SETFA ([7]; applied alone at 125 g a.i./ha) | Observed result (plant response rating), AMBEL ([8]; applied alone at 125 g a.i./ha) | Observed result (plant response rating), ZEAMD ([9]; applied alone at 125 g a.i./ha) | Observed result (plant response rating), GLXMA ([10]; applied alone at 125 g a.i./ha) | Observed result (plant response rating), DIGSA ([11]; applied alone at 125 g a.i./ha) | Observed result (plant response rating), PANDI ([12]; applied alone at 125 g a.i./ha) | Observed result (plant response rating), BRADC ([13]; applied alone at 125 g a.i./ha) | Plant response rating (0 to 100 scale) HORVW [14] | Plant response rating (0 to 100 scale) ORYSS [15] | Plant response rating (0 to 100 scale) SETFA [16] | Plant response rating (0 to 100 scale) ZEAMD [17] | Plant response rating (0 to 100 scale) TRZAW [18] | Plant response rating (0 to 100 scale) GLXMA [19] | further results |
| --- | --- | --- | --- | --- | --- | --- | --- | --- | --- | --- | --- | --- | --- | --- | --- | --- | --- | --- | --- | --- |
| CCNc1nc(Cl)nc(NC(C)C)n1 [Atrazine, atrazine] | 23 | 76 | 30 | 28 | 0 | 96 | 0 | 48 | 0 | 15 | 0 | 0 | 0 |  |  |  |  |  |  | Observed result (plant response rating), ERICA ([1]; applied alone at 250 g a.i./ha): 83; Observed result (plant response rating), AMAPA ([2]; applied alone at 250 g a.i./ha): 74; Observed result (plant response rating), AMATU ([3]; applied alone at 250 g a.i./ha): 39; Observed result (plant response rating), SOLPT ([4]; applied alone at 250 g a.i./ha): 64; Observed result (plant response rating), ABUTH ([5]; applied alone at 250 g a.i./ha): 10; Observed result (plant response rating), ECHCG ([6]; applied alone at 250 g a.i./ha): 100; Observed result (plant response rating), SETFA ([7]; applied alone at 250 g a.i./ha): 0; Observed result (plant response rating), AMBEL ([8]; applied alone at 250 g a.i./ha): 80; Observed result (plant response rating), ZEAMD ([9]; applied alone at 250 g a.i./ha): 0; Observed result (plant response rating), GLXMA ([10]; applied alone at 250 g a.i./ha): 33; Observed result (plant response rating), DIGSA ([11]; applied alone at 250 g a.i./ha): 0; Observed result (plant response rating), PANDI ([12]; applied alone at 250 g a.i./ha): 0; Observed result (plant response rating), BRADC ([13]; applied alone at 250 g a.i./ha): 0 |
| CCOC(=O)C1=NN(c2ccc(Cl)cc2Cl)C(C)(C(=O)OCC)C1 (centres unmarked) [Mefenpyr-diethyl, reference compound] |  |  |  |  |  |  |  |  |  |  |  |  |  | 0 | 0 | 0 | 0 | 0 | 0 |  |
| O=C(O)CNCP(=O)(O)O [Glyphosate, glyphosate] | 0 | 23 | 25 | 51 | 15 | 31 | 75 | 84 | 74 | 25 | 90 | 51 | 69 |  |  |  |  |  |  | Observed result (plant response rating), ERICA ([1]; applied alone at 62 g a.i./ha): 0; Observed result (plant response rating), AMAPA ([2]; applied alone at 62 g a.i./ha): 43; Observed result (plant response rating), AMATU ([3]; applied alone at 62 g a.i./ha): 11; Observed result (plant response rating), SOLPT ([4]; applied alone at 62 g a.i./ha): 43; Observed result (plant response rating), ABUTH ([5]; applied alone at 62 g a.i./ha): 0; Observed result (plant response rating), ECHCG ([6]; applied alone at 62 g a.i./ha): 6; Observed result (plant response rating), SETFA ([7]; applied alone at 62 g a.i./ha): 74; Observed result (plant response rating), AMBEL ([8]; applied alone at 62 g a.i./ha): 68; Observed result (plant response rating), ZEAMD ([9]; applied alone at 62 g a.i./ha): 68; Observed result (plant response rating), GLXMA ([10]; applied alone at 62 g a.i./ha): 10; Observed result (plant response rating), DIGSA ([11]; applied alone at 62 g a.i./ha): 86; Observed result (plant response rating), PANDI ([12]; applied alone at 62 g a.i./ha): 28; Observed result (plant response rating), BRADC ([13]; applied alone at 62 g a.i./ha): 68 |
| CCOC(=O)C1=NOC(c2ccccc2)(c2ccccc2)C1 [Isoxadifen-ethyl, isoxadifen-ethyl, reference compound] |  |  |  |  |  |  |  |  |  |  |  |  |  | 0 | 0 | 0 | 0 | 0 | 0 | ORYSS plant response rating, 0 to 100 scale ([20]; 31 g a.i./ha): 8; SETFA plant response rating, 0 to 100 scale ([21]; 31 g a.i./ha): 0; ZEAMD plant response rating, 0 to 100 scale ([22]; 31 g a.i./ha): 0; TRZAW plant response rating, 0 to 100 scale ([23]; 31 g a.i./ha): 0; GLXMA plant response rating, 0 to 100 scale ([24]; 31 g a.i./ha): 10 |
| CCCCCC(C)OC(=O)COc1ccc(Cl)c2cccnc12 (centres unmarked) [Cloquintocet-mexyl, cloquintocet-mexyl, reference compound] |  |  |  |  |  |  |  |  |  |  |  |  |  | 0 | 0 | 0 | 0 | 0 | 0 | Plant response rating (0 to 100 scale) ORYSS [20, 25]: 0; Plant response rating (0 to 100 scale) SETFA [21, 25]: 0; Plant response rating (0 to 100 scale) ZEAMD [22, 25]: 0; Plant response rating (0 to 100 scale) TRZAW [23, 25]: 0; Plant response rating (0 to 100 scale) GLXMA [24, 25]: 0 |

Reference: patent publication US12435044B2, “Pyridazinone herbicides and pyridazinone intermediates used to prepare a herbicide” (FMC Corporation, priority 2018, dated 2025)
